Assay results as given in patent US8383617B2, “Treatment of protein aggregation diseases” (priority 2007, dated 2013).
Where “and” joins values, the source holds several entries; their conditions need not be identical. Equal values may be shown once.

Key:
[1] = target: Synthetic beta-amyloid peptide 1-40 (Homo sapiens, UniProt P05067); assay: Seprion assay screen for compounds that affect amyloid aggregation; format: biochemical; details: test compounds at 1 mM; for Relative aggregation compared to 'no compound' aggregation control: peptide 2.8 μg/ml, 30 min at 37° C., Seprion assay signal
[2] = Therapy of a patient with Gerstman-Straussler-Scheinker (GSS) syndrome; details: intraventricular, before the combination therapy
beta-amyloid 1-42 [3] = target: T1, beta-amyloid 1-42 (Homo sapiens, UniProt P05067); assay: Seprion assay of brain extracts of treated hAPP(751) mice, beta-amyloid 1-42; format: in vivo; details: SDS extracts of brain; daily oral from 2 to 6 months of age; fluphenazine 0.5 mg/Kg, trimipramine 25 mg/Kg; one value per animal
T1 construct: ELISA and Seprion assay for amyloid — 1-40 and 1-42 on the SDS extracts; from tissue; host or cells: brain extracts of hAPP(751) transgenic mice

amyloid plaques = assay: Immunohistochemistry of brains of treated hAPP(751) mice for amyloid plaques; format: in vivo; details: immunohistochemistry of brain; daily oral from 2 to 6 months of age; fluphenazine 0.5 mg/Kg, trimipramine 25 mg/Kg
beta-amyloid 1-42 [4] = target: T1, beta-amyloid 1-42; assay: ELISA of brain extracts of treated hAPP(751) mice, beta-amyloid 1-42; format: in vivo; details: daily oral from 2 to 6 months of age, fluphenazine 0.5 mg/Kg, trimipramine 25 mg/Kg, one value per animal
beta-amyloid 1-40 [5] = target: T2, beta-amyloid 1-40 (Homo sapiens, UniProt P05067); assay: ELISA of brain extracts of treated hAPP(751) mice, beta-amyloid 1-40; format: in vivo; details: daily oral from 2 to 6 months of age, fluphenazine 0.5 mg/Kg, trimipramine 25 mg/Kg, one value per animal
T2 construct: These mice develop increased amounts of beta-amyloid 1-40 and 1-42 in the brain; from tissue; host or cells: brain extracts of hAPP(751) transgenic mice

beta-amyloid 1-40 [6] = target: T2, beta-amyloid 1-40; assay: Seprion assay of brain extracts of treated hAPP(751) mice, beta-amyloid 1-40; format: in vivo; details: SDS extracts of brain; daily oral from 2 to 6 months of age; fluphenazine 0.5 mg/Kg, trimipramine 25 mg/Kg; one value per animal
[7] = target: Synthetic beta-amyloid peptide (Homo sapiens, UniProt P05067); assay: PAGE and silver staining of aggregation reactions incubated with compounds; format: biochemical; details: peptide incubated in the presence of compound, FIG. 2
Sequence of Synthetic beta-amyloid peptide (P05067 672-711): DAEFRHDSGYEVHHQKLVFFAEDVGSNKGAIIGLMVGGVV

T2 sequence (P05067 672-711): as above
Sequence of Synthetic beta-amyloid peptide 1-40 (P05067 672-711): as above
T1 sequence (P05067 672-713): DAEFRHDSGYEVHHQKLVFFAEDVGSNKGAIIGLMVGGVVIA

In the case of protryptyline [Protriptyline], the “Relative aggregation compared to 'no compound' aggregation control” value [1] is reported as 184%.
In the case of `CN1CCN(CC/C=C2/c3ccccc3Sc3ccc(S(=O)(=O)N(C)C)cc32)CC1` [Cis-thiothixene, cis-thiothixene], the “Relative aggregation compared to 'no compound' aggregation control” value [1] is reported as 42%.
In the case of `Clc1ccc2c(c1)C(N1CCNCC1)=Nc1ccccc1O2` [Amoxapine, amoxapine], the “Relative aggregation compared to 'no compound' aggregation control” value [1] is reported as 119%.
With nortriptyline the “Relative aggregation compared to 'no compound' aggregation control” value [1] was 189%.
For pentosan polysulphate, the clinical effect [2] was “had no effect”.
With `c1ccc2c(c1)Nc1ccccc1S2` [Phenothiazine] the “Relative aggregation compared to 'no compound' aggregation control” value [1] was 80%.
In the case of `CCN(CC)CCCC(C)Nc1c2ccc(Cl)cc2nc2ccc(OC)cc12` (centres unmarked) [quinacrine], the “effect on amyloid aggregation (in words)” value ([1]; Seprion assay screen) is reported as “not effective”.
For `OCCN1CCN(CCCN2c3ccccc3Sc3ccc(C(F)(F)F)cc32)CC1` [Fluphenazine, fluphenazine], the “Seprion assay beta-amyloid 1-42 OD420 nm” value (beta-amyloid 1-42 [3]) was 0.93 OD420 nm and 0.68 OD420 nm, the plaque reduction (amyloid plaques) was 23% and the “ELISA beta-amyloid 1-42 ng” value (beta-amyloid 1-42 [4]; SDS extracts of brain) was 295 ng and 165 ng. For the same molecule, the “ELISA beta-amyloid 1-42 ng” value (beta-amyloid 1-42 [4]; formic acid extracts of brain) was 143 ng and 197 ng, the “ELISA beta-amyloid 1-40 ng” value (beta-amyloid 1-40 [5]; SDS extracts of brain) was 88 ng and 51 ng and the “ELISA beta-amyloid 1-40 ng” value (beta-amyloid 1-40 [5]; formic acid extracts of brain) was 116 ng and 119 ng. For the same molecule, the “Seprion assay beta-amyloid 1-40 OD420 nm” value (beta-amyloid 1-40 [6]) was 0.18 OD420 nm and 0.09 OD420 nm.
In the case of `OCCN1CCN(CCC=C2c3ccccc3Sc3ccc(C(F)(F)F)cc32)CC1` [Flupenthixol, cis-(Z)-flupenthixol], the “Relative aggregation compared to 'no compound' aggregation control” value [1] is reported as 48.2%.
For `CC(CN(C)C)CN1c2ccccc2CCc2ccccc21` (centres unmarked) [Trimipramine, trimipramine], the “inhibition of amyloid aggregation by PAGE and silver staining” value [7] was “inhibit the aggregation of the amyloid”, the “Seprion assay beta-amyloid 1-42 OD420 nm” value (beta-amyloid 1-42 [3]) was 0.26 OD420 nm and 2.26 OD420 nm and 0.98 OD420 nm and 0.64 OD420 nm and the plaque reduction (amyloid plaques) was 15%. The “ELISA beta-amyloid 1-42 ng” value (beta-amyloid 1-42 [4]; SDS extracts of brain) was 346 ng and 369 ng and 529 ng and 350 ng, the “ELISA beta-amyloid 1-42 ng” value (beta-amyloid 1-42 [4]; formic acid extracts of brain) was 174 ng and 185 ng and 311 ng and 213 ng and the “ELISA beta-amyloid 1-40 ng” value (beta-amyloid 1-40 [5]; SDS extracts of brain) was 169 ng and 101 ng and 195 ng and 89 ng. The “ELISA beta-amyloid 1-40 ng” value (beta-amyloid 1-40 [5]; formic acid extracts of brain) was 127 ng and 111 ng and 182 ng and 115 ng, the “Seprion assay beta-amyloid 1-40 OD420 nm” value (beta-amyloid 1-40 [6]) was 0.11 OD420 nm and 0.58 OD420 nm and 0.14 OD420 nm and 0.10 OD420 nm and the “Relative aggregation compared to 'no compound' aggregation control” value [1] was 259%.
With `CN(C)CCCN1c2ccccc2Sc2ccccc21.Cl` [Promazine, promazine] the “inhibition of amyloid aggregation by PAGE and silver staining” value [7] was “inhibit the aggregation of the amyloid” and the “Relative aggregation compared to 'no compound' aggregation control” value [1] was 44.5%.
